These results are taken from US20240051968A1, “METHODS FOR TREATING SPINOCEREBELLAR ATAXIA TYPE 3” (PTC Therapeutics, Inc., priority 2021, published 2024).

In one assay the test system is ATXN3 pre-mRNA. Nature of the assay: RT-qPCR Assay to Quantify Exon 4 Skipping in ATXN3 pre-mRNA in Cells. The note with it: cells incubated with compound 24 h, 7-point concentration curve, GAPDH control. It is filed as cell-based. The procedure, abridged:
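Cells (10,000/well) treated 24 h at 37° C with 7-point, 3.16-fold compound dilutions in duplicate against DMSO controls. Lysates analysed by one-step RT-qPCR (40 cycles) for ATXN3 exon 4 skipping; percent skipping per dose fitted to dose-response to interpolate IC50.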
In general terms: Real-time PCR tracks product formation cycle by cycle.

In assay [1] the test system is Total ATXN3 (tATXN3) protein. Briefly: Endogenous Total ATXN3 (tATXN3) Protein Assay (MSD immunoassay of cell lysates). It is filed as cell-based. The note with it: cells incubated with compound 48 h; 7-point concentration curve; MSD detection in cell lysate. The procedure, abridged:
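Cells were plated at 10,000 per well on a 7-point, 3.16-fold compound dilution series in duplicate, with DMSO controls, and incubated 48 h at 37 °C. Lysates were run in an MSD sandwich immunoassay: mouse anti-ATXN3 capture, rabbit anti-ATXN3 secondary and SULFO-TAG anti-rabbit detection, read by electrochemiluminescence.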

As a reminder, the IC50 is the concentration needed to halve the response being measured. With `Cc1c(C[C@@H](N)[C@H](C)F)sc2c(NCc3cccs3)cc(Cl)nc12` [Cpd 126, 2-[(2R,3S)-2-amino-3-fluorobutyl]-5-chloro-3-methyl-N-[(thiophen-2-yl)methyl]thieno[3,2-b]pyridin-7-amine], the 50% inhibitory concentration (IC50) (with ATXN3 pre-mRNA; in assay [1]) was at most 500 nM each time.

With `C[C@H](N)C(O)c1sc2c(NCc3cccs3)cc(Cl)nc2c1Cl` (stereo partly drawn) [Cpd 127, (2S)-2-amino-1-(3,5-dichloro-7-{[(thiophen-2-yl)methyl]amino}thieno[3,2-b]pyridin-2-yl)propan-1-ol], the IC50 (with ATXN3 pre-mRNA; in assay [1]) was at most 500 nM each time.

As to `Cc1c(C[C@@H](N)[C@H](C)F)sc2c(NCc3nccs3)cc(Cl)nc12` [Cpd 128, 2-[(2R,3S)-2-amino-3-fluorobutyl]-5-chloro-3-methyl-N-[(1,3-thiazol-2-yl)methyl]thieno[3,2-b]pyridin-7-amine], the IC50 (in the assay with ATXN3 pre-mRNA; in assay [1]) was at most 500 nM each time.

`C[C@H](N)C(F)c1sc2c(NCc3cccs3)cc(Cl)nc2c1Cl` (stereo partly drawn) [Cpd 130, 2-[(2S)-2-amino-1-fluoropropyl]-3,5-dichloro-N-[(thiophen-2-yl)methyl]thieno[3,2-b]pyridin-7-amine]: the IC50 (with ATXN3 pre-mRNA; in assay [1]) was at most 500 nM in each case.

Take `C[C@H](N)C(F)(F)c1sc2c(NCc3cccs3)cc(Cl)nc2c1Cl` [Cpd 132, 2-[(2S)-2-amino-1,1-difluoropropyl]-3,5-dichloro-N-[(thiophen-2-yl)methyl]thieno[3,2-b]pyridin-7-amine]: the IC50 was at most 500 nM in the assay with ATXN3 pre-mRNA and 500 to 1000 nM in assay [1].

Turning to `Cc1c(C[C@@H](N)C(=O)Nc2cnccn2)sc2c(NCc3ccco3)cc(Cl)nc12` [Cpd 135, 3-(5-chloro-7-{[(furan-2-yl)methyl]amino}-3-methylthieno[3,2-b]pyridin-2-yl)-N-pyrazin-2-yl-D-alaninamide], the IC50 (in the assay on ATXN3 pre-mRNA; in assay [1]) was at most 500 nM in each case.

On to `Cc1c(C[C@@H](N)C(=O)Nc2ccncc2)sc2c(NCc3ccco3)cc(Cl)nc12` [Cpd 140, 3-(5-chloro-7-{[(furan-2-yl)methyl]amino}-3-methylthieno[3,2-b]pyridin-2-yl)-N-pyridin-4-yl-D-alaninamide], for which the IC50 (in the assay on ATXN3 pre-mRNA; in assay [1]) was at most 500 nM in each case.

In the case of `Cc1c(C[C@@H](N)C(=O)N(C)c2ccccc2)sc2c(NCc3ccco3)cc(Cl)nc12` [Cpd 141, 3-(5-chloro-7-{[(furan-2-yl)methyl]amino}-3-methylthieno[3,2-b]pyridin-2-yl)-N-methyl-N-phenyl-D-alaninamide], the IC50 (in the assay on ATXN3 pre-mRNA; in assay [1]) was 1000 to 1500 nM each time.

`Cc1c([C@H](C)[C@H](C)N)sc2c(NCc3ccco3)cc(Cl)nc12` [Cpd 150, 2-[(2R,3S)-3-aminobutan-2-yl]-5-chloro-N-[(furan-2-yl)methyl]-3-methylthieno[3,2-b]pyridin-7-amine]: the IC50 (with ATXN3 pre-mRNA; in assay [1]) was at most 500 nM throughout.

In the case of `Cc1c([C@@H](C)[C@H](C)N)sc2c(NCc3ccco3)cc(Cl)nc12` [Cpd 151, 2-[(2S,3S)-3-aminobutan-2-yl]-5-chloro-N-[(furan-2-yl)methyl]-3-methylthieno[3,2-b]pyridin-7-amine], the IC50 (with ATXN3 pre-mRNA; in assay [1]) was 1000 to 1500 nM throughout.

As for `Cc1c(CCN)sc2c(NCc3ccco3)cc(Cl)nc12` [Cpd 152, 2-(2-aminoethyl)-5-chloro-N-[(furan-2-yl)methyl]-3-methylthieno[3,2-b]pyridin-7-amine], in the assay with ATXN3 pre-mRNA, the “IC50, exon 4 skipping in ATXN3 pre-mRNA” value was “inactive”. The “IC50 (average), total ATXN3 protein” value in assay [1] was “inactive”.

Regarding `C[C@H](N)C(O)c1sc2c(NCc3ccco3)cc(Cl)nc2c1Br` (stereo partly drawn) [Cpd 153, (2S)-2-amino-1-(3-bromo-5-chloro-7-{[(furan-2-yl)methyl]amino}thieno[3,2-b]pyridin-2-yl)propan-1-ol], in the assay with ATXN3 pre-mRNA, the “IC50, exon 4 skipping in ATXN3 pre-mRNA” value was “inactive”. Also, in assay [1], the “IC50 (average), total ATXN3 protein” value was “inactive”.

As for `C[C@H](N)C(F)c1sc2c(NCc3ccco3)cc(Cl)nc2c1Br` (stereo partly drawn) [Cpd 154, 2-[(2S)-2-amino-1-fluoropropyl]-3-bromo-5-chloro-N-[(furan-2-yl)methyl]thieno[3,2-b]pyridin-7-amine], the IC50 (with ATXN3 pre-mRNA; in assay [1]) was at most 500 nM each time.

Turning to `C[C@H](N)C(O)c1sc2c(NCc3cccs3)cc(Cl)nc2c1Br` (stereo partly drawn) [Cpd 155, (2S)-2-amino-1-(3-bromo-5-chloro-7-{[(thiophen-2-yl)methyl]amino}thieno[3,2-b]pyridin-2-yl)propan-1-ol], the “IC50, exon 4 skipping in ATXN3 pre-mRNA” value with ATXN3 pre-mRNA is “inactive”. Further, the “IC50 (average), total ATXN3 protein” value in assay [1] is “inactive”.

As to `C[C@H](N)C(F)c1sc2c(NCc3cccs3)cc(Cl)nc2c1Br` (stereo partly drawn) [Cpd 158, 2-[(2S)-2-amino-1-fluoropropyl]-3-bromo-5-chloro-N-[(thiophen-2-yl)methyl]thieno[3,2-b]pyridin-7-amine], the IC50 (in the assay on ATXN3 pre-mRNA; in assay [1]) was at most 500 nM in each case.

Take `C[C@H](N)C(O)c1sc2c(NCc3nccs3)cc(Cl)nc2c1Br` (stereo partly drawn) [Cpd 159, (2S)-2-amino-1-(3-bromo-5-chloro-7-{[(1,3-thiazol-2-yl)methyl]amino}thieno[3,2-b]pyridin-2-yl)propan-1-ol]: the “IC50, exon 4 skipping in ATXN3 pre-mRNA” value with ATXN3 pre-mRNA is “inactive”. Moreover, the “IC50 (average), total ATXN3 protein” value in assay [1] was “inactive”.

Turning to `C[C@H](N)C(F)c1sc2c(NCc3nccs3)cc(Cl)nc2c1Br` (stereo partly drawn) [Cpd 161, 2-[(2S)-2-amino-1-fluoropropyl]-3-bromo-5-chloro-N-[(1,3-thiazol-2-yl)methyl]thieno[3,2-b]pyridin-7-amine], the IC50 in the assay with ATXN3 pre-mRNA was at most 500 nM; in assay [1] it was 500 to 1000 nM.

With `Cc1c(NC[C@H](C)N)sc2c(NCc3cccs3)cc(Cl)nc12` [Cpd 163, N^2-[(2S)-2-aminopropyl]-5-chloro-3-methyl-N^7-[(thiophen-2-yl)methyl]thieno[3,2-b]pyridine-2,7-diamine], the results for the half-maximal inhibitory concentration (IC50) (in the assay on ATXN3 pre-mRNA; in assay [1]) were 500 to 1000 nM and 1000 to 1500 nM, respectively.

For the compound `Cc1c(NC[C@@H](C)N)sc2c(NCc3cccs3)cc(Cl)nc12` [Cpd 164, N^2-[(2R)-2-aminopropyl]-5-chloro-3-methyl-N^7-[(thiophen-2-yl)methyl]thieno[3,2-b]pyridine-2,7-diamine], the IC50 in the assay with ATXN3 pre-mRNA is 2000 to 3000 nM; in assay [1] it was above 2000 nM.

`C[C@@H](O)[C@H](N)Cc1sc2c(NCc3ccco3)cc(Cl)nc2c1Br` [Cpd 165, (2R,3R)-3-amino-4-(3-bromo-5-chloro-7-{[(furan-2-yl)methyl]amino}thieno[3,2-b]pyridin-2-yl)butan-2-ol]: the IC50 (with ATXN3 pre-mRNA; in assay [1]) was at most 500 nM each time.

With `C#C[C@H](N)Cc1sc2c(NCc3ccco3)cc(Cl)nc2c1Cl` [Cpd 166, 2-[(2R)-2-aminobut-3-yn-1-yl]-3,5-dichloro-N-[(furan-2-yl)methyl]thieno[3,2-b]pyridin-7-amine], the IC50 (with ATXN3 pre-mRNA; in assay [1]) was at most 500 nM each time.

In the case of `C[S+]([O-])C[C@H](N)Cc1sc2c(NCc3ccco3)cc(Cl)nc2c1Cl` (stereo partly drawn) [Cpd 167, [(2R)-2-amino-3-(3,5-dichloro-7-{[(furan-2-yl)methyl]amino}thieno[3,2-b]pyridin-2-yl)propyl](methyl)sulfaniumolate], the IC50 (in the assay with ATXN3 pre-mRNA; in assay [1]) was at most 500 nM in each case.
